The source of these data is PMC8585037 (International Journal of Molecular Sciences, 2021).

“And” between values parts separate entries of the source, which are not always exact repeats. Equal entries are not always repeated.

For series [1], the target named is T1, NET (Rattus norvegicus, UniProt Q63380).
T1 construct: Synaptosomes from rat cerebrum were isolated as described by Bogen et al; from tissue; host or cells: rat cerebrum synaptosomes
Description: Synaptosomal uptake of [3H]NE in rat brain synaptosomes. Type of series: biochemical.

In series [2] the test system is Sprague-Dawley rats. Also noted: method as in PMID 27265782. To be noted: i.p.; cited from earlier work.
Series [3] relates to CD-1 mice. On the set-up: method as in PMID 32356113, PMID 33770233. As to conditions: i.p.; cited from earlier work.
For series [4], the target named is T2, VMAT2 (Rattus norvegicus, UniProt Q01827).
T2 construct: Synaptic vesicles from rat cerebrum were isolated as described previously; from tissue; host or cells: rat cerebrum synaptic vesicles
Description: Vesicular uptake of [3H]DA, [3H]NE and [3H]5-HT in rat brain synaptic vesicles. It is filed as biochemical.

Series [5] in a line: Pharmacokinetic studies: drug concentrations in mouse blood and brain tissue. To be noted: for half-life / Cmax: C57BL/6, mouse, ip.
Series [6] deals with T3, SERT (Rattus norvegicus, UniProt P31652).
T3 construct: Synaptosomes from rat cerebrum were isolated as described by Bogen et al; from tissue; host or cells: rat cerebrum synaptosomes
Description: Synaptosomal uptake of [3H]5-HT in rat brain synaptosomes. As to conditions: IC50 Synaptosomes [3H]5-HT Uptake via SERT. It is filed as biochemical.

Series [7] concerns the target T4, DAT (Rattus norvegicus, UniProt P23977).
T4 construct: Synaptosomes from rat cerebrum were isolated as described by Bogen et al; from tissue; host or cells: rat cerebrum synaptosomes
Description: Synaptosomal uptake of [3H]DA in rat brain synaptosomes. Type of series: biochemical.

The conditions of series [8]: cited from earlier work.
Series [9] relates to C57BL/6J mice. Description: Locomotor activity studies in mice. It is filed as in vivo, mouse. As to conditions: for dose giving maximal locomotor effect (Emax): i.p.
The test system of series [10] is CD-1 mice. As to conditions: chronic exposure, 10 mg/kg/day for 30 days; cited from earlier work.
The subject of series [11] is vesicular DA uptake. On the set-up: method as in PMID 16835371. As to conditions: cited from earlier work.
For series [12], the system named is DA, 3-MT, DOPAC, 5-HT and 5-HIAA in dorsal striatum and nucleus accumbens. Description: Neurotransmitter and metabolite concentrations in post-mortem mouse brain tissue. Type of series: in vivo. As to conditions: 20 min after 3.75 mg/kg i.p.
The mark [13] stands for this setting: mouse, single i.p. injection of 3.75 mg/kg methamphetamine.

T4 sequence (P23977 whole entry): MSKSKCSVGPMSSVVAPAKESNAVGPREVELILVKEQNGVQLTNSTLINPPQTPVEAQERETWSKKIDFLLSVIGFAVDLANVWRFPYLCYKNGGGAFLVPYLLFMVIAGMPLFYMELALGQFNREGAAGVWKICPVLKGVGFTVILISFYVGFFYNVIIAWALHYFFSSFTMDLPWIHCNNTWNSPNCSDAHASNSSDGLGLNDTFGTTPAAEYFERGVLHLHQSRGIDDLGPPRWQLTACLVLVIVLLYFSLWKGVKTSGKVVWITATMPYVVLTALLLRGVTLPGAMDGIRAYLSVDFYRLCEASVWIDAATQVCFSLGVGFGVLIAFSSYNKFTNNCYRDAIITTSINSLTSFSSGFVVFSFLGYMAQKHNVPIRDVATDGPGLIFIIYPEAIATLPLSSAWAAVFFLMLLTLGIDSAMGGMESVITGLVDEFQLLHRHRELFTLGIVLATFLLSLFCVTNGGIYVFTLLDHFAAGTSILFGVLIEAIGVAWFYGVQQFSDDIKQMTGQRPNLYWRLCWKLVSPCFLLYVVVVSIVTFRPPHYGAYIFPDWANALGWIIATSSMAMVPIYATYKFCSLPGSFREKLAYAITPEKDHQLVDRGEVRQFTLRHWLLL
T2 sequence (Q01827 whole entry): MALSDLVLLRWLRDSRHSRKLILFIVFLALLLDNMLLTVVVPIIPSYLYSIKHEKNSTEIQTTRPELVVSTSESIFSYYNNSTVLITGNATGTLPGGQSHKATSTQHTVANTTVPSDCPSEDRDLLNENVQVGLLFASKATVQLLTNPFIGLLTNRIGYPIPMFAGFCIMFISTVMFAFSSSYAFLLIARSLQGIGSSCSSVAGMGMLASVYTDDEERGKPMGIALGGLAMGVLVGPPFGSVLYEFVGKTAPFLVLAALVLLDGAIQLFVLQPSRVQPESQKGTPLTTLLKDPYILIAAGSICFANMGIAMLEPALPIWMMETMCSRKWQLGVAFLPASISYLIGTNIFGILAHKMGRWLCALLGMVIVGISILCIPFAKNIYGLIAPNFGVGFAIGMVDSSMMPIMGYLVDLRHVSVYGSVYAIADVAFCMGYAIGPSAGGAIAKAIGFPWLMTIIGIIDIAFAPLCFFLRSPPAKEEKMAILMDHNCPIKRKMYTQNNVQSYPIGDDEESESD
T1 sequence (Q63380 1-617): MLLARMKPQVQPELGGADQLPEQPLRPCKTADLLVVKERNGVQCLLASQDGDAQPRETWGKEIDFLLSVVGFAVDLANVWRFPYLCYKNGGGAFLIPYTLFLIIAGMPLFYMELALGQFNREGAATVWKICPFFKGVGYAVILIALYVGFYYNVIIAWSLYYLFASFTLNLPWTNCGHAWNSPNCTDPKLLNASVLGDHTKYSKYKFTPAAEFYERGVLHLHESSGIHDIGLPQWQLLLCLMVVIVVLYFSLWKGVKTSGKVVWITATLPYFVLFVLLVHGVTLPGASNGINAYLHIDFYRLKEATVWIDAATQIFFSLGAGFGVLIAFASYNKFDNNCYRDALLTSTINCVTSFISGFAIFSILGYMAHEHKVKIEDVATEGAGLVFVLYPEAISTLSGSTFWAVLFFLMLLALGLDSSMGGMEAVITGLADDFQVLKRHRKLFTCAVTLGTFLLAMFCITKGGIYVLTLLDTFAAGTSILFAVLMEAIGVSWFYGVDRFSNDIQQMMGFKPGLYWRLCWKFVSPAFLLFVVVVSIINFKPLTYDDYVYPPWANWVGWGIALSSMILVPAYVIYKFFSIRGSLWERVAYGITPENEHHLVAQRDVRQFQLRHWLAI
T3 sequence (P31652 whole entry): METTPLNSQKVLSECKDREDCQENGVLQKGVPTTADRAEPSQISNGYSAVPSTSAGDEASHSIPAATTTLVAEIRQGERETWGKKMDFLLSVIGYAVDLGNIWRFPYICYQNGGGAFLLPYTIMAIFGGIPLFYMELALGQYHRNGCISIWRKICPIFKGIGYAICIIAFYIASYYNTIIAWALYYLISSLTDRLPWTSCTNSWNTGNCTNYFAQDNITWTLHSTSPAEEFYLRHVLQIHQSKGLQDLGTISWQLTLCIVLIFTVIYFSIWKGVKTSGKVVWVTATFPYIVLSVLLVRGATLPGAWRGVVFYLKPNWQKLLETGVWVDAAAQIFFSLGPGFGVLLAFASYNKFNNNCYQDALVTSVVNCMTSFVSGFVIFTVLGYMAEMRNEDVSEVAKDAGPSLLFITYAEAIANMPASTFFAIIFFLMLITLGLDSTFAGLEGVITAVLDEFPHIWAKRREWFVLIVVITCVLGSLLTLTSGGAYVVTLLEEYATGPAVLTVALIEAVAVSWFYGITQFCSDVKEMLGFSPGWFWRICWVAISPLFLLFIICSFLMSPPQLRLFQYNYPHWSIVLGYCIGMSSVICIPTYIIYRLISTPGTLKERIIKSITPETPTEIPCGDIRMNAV

As to `CNC(C)Cc1cccs1` (stereo not shown) [methiopropamine, 1-(thiophen-2-yl)-2-methylaminopropane], the IC50 (usually the concentration needed to halve the response being measured) is 0.47 ± 0.06 µM in series [1]; 48.9 ± 5.02 µM in [4] (IC50 Synaptic Vesicles [3H]5-HT Uptake via VMAT2, rat brain synaptic vesicles); 33.8 µM in series [4] (IC50 Synaptic Vesicles [3H]DA Uptake via VMAT2, rat brain synaptic vesicles); 47 ± 8.01 µM in series [4] (IC50 Synaptic Vesicles [3H]NE Uptake via VMAT2, rat brain synaptic vesicles); 34 to 49 µM and > 25 µM and 10 to 50 µM in series [4] (IC50 vesicular uptake of DA, NE and 5-HT (span over the three substrates), rat brain synaptic vesicles); 25.1 ± 2.91 µM in [6]. Besides, the IC50 in [7] was 0.74 ± 0.09 µM. Moreover, the “dose with significant increase in locomotor activity” value in [2] was 5 mg/kg; in series [3], 10 mg/kg. Also, in series [5] (5, 30 and 60 min after injection, […] methiopropamine vs 3.75 mg/kg methamphetamine, p > 0.05), the “brain:blood ratios, comparison of the two drugs” value was “no significant differences”. Also, the half-life (commonly the time needed for the level to fall by half in the phase considered) was roughly 30 min in series [5] (blood and brain, […]); roughly 35 min in series [5] (brain, […]); roughly 31 min in series [5] (whole blood, […]). For the same compound, the “potency, fold weaker compared with methamphetamine” value in series [7] (DA, NE and 5-HT transporters) is reported as “approximately 5 ×”. Further, in series [8] (fatal case of isolated methiopropamine use), the “peripheral postmortem blood concentration” value is reported as 38 µg/mL. Also, the blood concentration in series [8] (fatal intoxication case) is recorded as 245 µM. For the same compound, the “peak effect (Emax), maximum run distance per 5 min interval” value in series [9] ([…] i.p., C57BL/6 mice) came out at 2037 ± 127 cm/5 min. Besides, the “dose giving maximal locomotor effect (Emax)” value in series [9] (C57BL/6 mice) turned out to be 12.5 mg/kg. Also, the sudden deaths result in [9] (mouse, in vivo) is on record as “did not observe any sudden deaths”; in [10], 70 % deaths.
Take `CN[C@@H](C)Cc1ccccc1` [methamphetamine]: the IC50 in series [11] was 9.1 µM. Moreover, in [12] (Dorsal Striatum), the 3-MT concentration is listed as 3.6 ± 0.7 nmol/g, the 5-HT concentration is listed as 2.0 ± 0.3 nmol/g and the DA concentration is on record as 107.4 ± 21.1 nmol/g. In addition, in series [12] (Nucleus Accumbens), the 3-MT concentration amounted to 3.5 ± 1.0 nmol/g, the 5-HT concentration is reported as 6.1 ± 0.8 nmol/g and the DA concentration came out at 82.2 ± 10.5 nmol/g. Further, the half-life in series [5] (brain, 3.75 mg/kg) is roughly 45 min. Further, the highest level in series [5] (brain, 3.75 mg/kg, Cmax in brain, mouse, single i.p. injection of 3.75 mg/kg methamphetamine) (Cmax) was 4110 ± 150 ng/g. Also, the half-life in series [5] (whole blood, 3.75 mg/kg) was roughly 36 min. Moreover, in [5] (whole blood, 3.75 mg/kg, Cmax in blood, mouse, single i.p. injection of 3.75 mg/kg methamphetamine), the concentration peaked (Cmax) at 910 ± 80 ng/mL. Besides, in series [5] (setting [13]), the “time of Cmax in blood” value came to 5 min and the “time of Cmax in brain” value was found to be 20 min. Moreover, in series [7], the IC50 worked out at 0.14 ± 0.01 µM. In series [9] (3.75 mg/kg i.p., C57BL/6 mice), the “Emax, maximum run distance per 5 min interval” value is 1312 ± 126 cm and the “maximum total locomotor activity (total run distance during 240 min session)” value is recorded as 24,401 ± 2043 cm. Also, the “dose giving maximal locomotor effect (Emax)” value in [9] (C57BL/6 mice) turned out to be 3.75 mg/kg.
